{"source": "paper PMC8131219", "about": "(Chemical research in toxicology, 2020)", "key": {"[1]": {"target": "T1, human VMAT2 (Homo sapiens, UniProt Q05940)", "T1 sequence (Q05940 whole entry)": "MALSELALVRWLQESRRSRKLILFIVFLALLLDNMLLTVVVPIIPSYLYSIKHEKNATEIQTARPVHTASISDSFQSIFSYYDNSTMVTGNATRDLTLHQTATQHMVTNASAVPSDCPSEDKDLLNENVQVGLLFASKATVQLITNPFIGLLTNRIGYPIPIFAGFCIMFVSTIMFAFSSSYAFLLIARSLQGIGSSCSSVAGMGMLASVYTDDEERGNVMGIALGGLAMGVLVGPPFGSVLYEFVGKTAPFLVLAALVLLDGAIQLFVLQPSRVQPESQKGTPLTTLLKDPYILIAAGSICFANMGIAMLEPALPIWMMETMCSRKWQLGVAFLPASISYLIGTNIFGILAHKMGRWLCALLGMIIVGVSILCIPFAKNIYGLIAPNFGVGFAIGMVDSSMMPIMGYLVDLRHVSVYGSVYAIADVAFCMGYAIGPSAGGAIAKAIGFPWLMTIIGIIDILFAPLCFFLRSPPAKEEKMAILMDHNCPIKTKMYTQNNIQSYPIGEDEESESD", "assay": "cell-based", "conditions": "for Effect on FFN206 uptake / vesicular loading: tested at 0.01, 0.1, 1, 10 and 100 μM; for VMAT2 inhibitor strength (in words): short-term exposure, up to 100 μM"}, "[2]": {"target": "T1, human VMAT2", "assay": "Real-time uptake of FFN206 with confocal microscopy in HEK+VMAT2 cells", "assay_type": "cell-based", "conditions": "20 μM FFN206; one-way ANOVA, p <0.0001 vs HEK+VMAT2"}, "[3]": {"conditions": "100 nM rotenone; after 48 hours; from mitochondrial complex I inhibition; cited from earlier work"}}, "note": "Read-outs that look alike come from different tables or passages of the source."}
{"compound": "COc1cc2c(cc1OC)C1CC(=O)C(CC(C)C)CN1CC2", "note": "(centres unmarked) [tetrabenazine, reference compound]", "values": [{"measurement": "Concentration showing essentially complete / total inhibition of VMAT2", "setting": "[1]", "value": 1, "unit": "µM"}, {"measurement": "Effect on FFN206 fluorescence", "setting": "[1]", "value": "almost total loss of FFN206 fluorescence"}, {"measurement": "FFN206 fluorescence in final 20 seconds of 1000 seconds uptake vs HEK+VMAT2", "setting": "[2]", "value": "significant differences"}]}
{"compound": "C[n+]1ccc(-c2cc[n+](C)cc2)cc1", "note": "[paraquat]", "values": [{"measurement": "IC50", "setting": "[1]", "value": 12.4, "unit": "µM"}]}
{"compound": "CO/C1=C\\C(C)=C\\[C@@H](C)[C@@H](O)[C@@H](C)C/C(C)=C/C=C/[C@H](OC)[C@@H]([C@@H](C)[C@@H](O)[C@H](C)[C@@]2(O)C[C@@H](O)[C@H](C)[C@@H](C(C)C)O2)OC1=O", "note": "[bafilomycin, reference compound]", "values": [{"measurement": "Effect on FFN206 fluorescence", "setting": "[1]; HEK+VMAT2 cells, 10 μM tetrabenazine, bafilomycin data not shown", "value": "depleted FFN206 fluorescence"}, {"measurement": "FFN206 fluorescence in final 20 seconds of 1000 seconds uptake vs HEK+VMAT2", "setting": "[2]", "value": "decreased FFN206 fluorescence"}]}
{"compound": "C=C(C)[C@H]1Cc2c(ccc3c2O[C@@H]2COc4cc(OC)c(OC)cc4[C@@H]2C3=O)O1", "note": "[rotenone]", "values": [{"measurement": "Concentration at which a reduction in VMAT2 function was detected", "setting": "[1]; HEK+VMAT2 cells, 90 minutes total exposure", "value": 100, "unit": "µM"}, {"measurement": "Effect on FFN206 uptake / vesicular loading", "setting": "[1]; HEK+VMAT2 cells", "value": "minor decrease in FFN206 uptake at the highest concentration"}, {"measurement": "Cell death", "setting": "[3]", "value": "70–80%"}]}
{"compound": "CCOP(=S)(OCC)Oc1nc(Cl)c(Cl)cc1Cl", "note": "[chlorpyrifos]", "values": [{"measurement": "Effect on FFN206 uptake / vesicular loading", "setting": "[1]; HEK+VMAT2 cells", "value": "minor decrease in FFN206 uptake at the highest concentration"}]}
{"compound": "CN[C@@H](C)Cc1ccccc1", "note": "[methamphetamine, reference compound]", "values": [{"measurement": "IC50", "setting": "[1]", "value": 2.4, "unit": "µM"}, {"measurement": "Concentration showing essentially complete / total inhibition of VMAT2", "setting": "[1]; HEK+VMAT2 cells, dose response, 1 μM FFN206", "value": "≤ 100", "unit": "µM"}]}
{"compound": "O=S(=O)(O)C(F)(F)C(F)(F)C(F)(F)C(F)(F)C(F)(F)C(F)(F)C(F)(F)C(F)(F)F", "note": "[PFOS, perfluorooctanesulfonic acid]", "values": [{"measurement": "VMAT2 inhibitor strength (in words)", "setting": "[1]; HEK+VMAT2 cells", "value": "weak inhibitors of VMAT2"}, {"measurement": "Effect on FFN206 uptake / vesicular loading", "setting": "[1]; HEK+VMAT2 cells", "value": "did not show impairment of vesicular loading"}]}
{"compound": "hexabromocyclododecane", "values": [{"measurement": "VMAT2 inhibitor strength (in words)", "setting": "[1]; HEK+VMAT2 cells", "value": "weak inhibitors of VMAT2"}, {"measurement": "Effect on FFN206 uptake / vesicular loading", "setting": "[1]; HEK+VMAT2 cells", "value": "did not show impairment of vesicular loading"}]}
{"compound": "COC(=O)C(c1ccccc1)C1CCCCN1", "note": "(centres unmarked) [methylphenidate, reference compound]", "values": [{"measurement": "IC50", "setting": "[1]", "value": 94.3, "unit": "µM"}]}
